{
  "source": "patent US9352015B2",
  "about": "“Antimicrobial peptides” (priority 2009, dated 2016)",
  "key": {"[1]": {"test": "Hemolytic activity against human erythrocytes (HC50 / MHC, microtiter dilution)", "type": "cell-based", "settings": "1% human erythrocytes, pH 7.4, read-out: Hemolytic activity HC50", "protocol": "(§1) Hemoglobin release was determined spectrophotometrically at 570 nm. The hemolytic activity was determined as the peptide concentration that caused 50% hemolysis of erythrocytes after 18 h (HC50). […] HC50 was determined by a plot of peptide concentration versus percent lysis."}, "human erythrocytes [2]": {"test_system": "human erythrocytes", "test": "Hemolytic activity against human erythrocytes (HC50 / MHC, microtiter dilution)", "type": "cell-based", "protocol": "as §1"}, "Acinetobacter baumannii": {"test_system": "Acinetobacter baumannii", "type": "cell-based", "in_short": "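Microtiter broth dilution in triplicate, mainly LB no-salt medium (MH or BHI in some cases), peptides serially diluted, final inoculum 5×10^5 CFU/ml (1×10^5 CFU/ml in MH variant); 24 h at 37° C. MIC is the lowest peptide concentration inhibiting growth, given in micromolar against clinical isolates.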"}, "[3]": {"test": "RP-HPLC retention as measure of overall peptide hydrophobicity", "type": "physicochemical", "settings": "pH 2, room temperature", "protocol": "Crude and purified peptides were analyzed on an Agilent 1100 series liquid chromatograph (Little Falls, Del.). Runs were performed on a Zorbax 300 SB-C8 column (150×2.1 mm I.D.; 5 μm particle size, 300 Å pore size) from Agilent Technologies using linear AB gradient (1% acetonitrile/min) and a flow rate of 0.25 ml/min, where eluant A was 0.2% aqueous TFA, pH 2 and eluant B was 0.2% TFA in acetonitrile."}, "[4]": {"test": "RP-HPLC temperature profiling (peptide self-association parameter PA)", "type": "physicochemical", "settings": "enantiomer pairs of V681 analogs, 5° C. to 80° C., relative to peptide C", "in_short": "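Peptide retention was profiled by RP-HPLC at pH 2 from 5 °C to 80 °C in 3 °C increments, using a linear gradient of 0.5% acetonitrile/min. The monomeric random-coil control peptide C profile was subtracted. PA is the maximum change in retention time relative to control C; higher PA means greater self-association.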"}, "Pseudomonas aeruginosa": {"test_system": "Pseudomonas aeruginosa", "settings": "for MIC PAO 1: 37° C., 24 h, strain PAO1; for MIC GM (geometric mean of the MIC values): six P. aeruginosa strains; for MIC CP 204: strain CP204; for MIC M 2: strain M2; for MIC PA 14: strain PA14; for MIC PAK: strain PAK; for MIC WR 5: strain WR5"}, "human erythrocytes [5]": {"test_system": "human erythrocytes", "test": "Hemolytic activity against human erythrocytes (HC50 / MHC, microtiter dilution)", "type": "cell-based", "settings": "V681 analog studies"}, "[6]": {"settings": "human erythrocytes, concentration of peptide that results in 50% hemolysis after 18 hours at 37° C."}, "[7]": {"settings": "human red blood cells, 50% hemolysis after 18 h"}},
  "note": "Values joined by “and” are separate entries in the source; they are usually repeats but may differ in a detail not shown here. Identical values can stand only once. Like-named read-outs stand apart in the source and are kept apart here.",
  "data": [
    {"smiles": "CC[C@@H](C)[C@@H](NC(=O)[C@@H](C)NC(=O)[C@@H](CCCCN)NC(=O)[C@@H](CC(C)C)NC(=O)[C@@H](C)NC(=O)[C@H](NC(=O)[C@@H](Cc1c[nH]cn1)NC(=O)[C@@H](CC(C)C)NC(=O)[C@H](NC(=O)[C@H](NC(=O)[C@@H](CCCCN)NC(=O)[C@@H](CCCCN)NC(=O)[C@@H](C)NC(=O)[C@@H](CO)NC(=O)[C@@H](CCCCN)NC(=O)[C@@H](Cc1ccccc1)NC(=O)[C@H](NC(=O)[C@@H](CCCCN)NC(=O)[C@@H](CC(C)C)NC(=O)[C@@H](Cc1ccccc1)NC(=O)[C@@H](CO)NC(=O)[C@@H](CCCCN)NC(=O)[C@@H](Cc1c[nH]c2ccccc12)NC(=O)[C@@H](CCCCN)NC(C)=O)[C@H](C)O)[C@H](C)O)C(C)C)[C@H](C)O)C(=O)N[C@H](CO)C(=O)N[C@H](CO)C(N)=O", "note": "[Peptide D1, Ac-KWKSFLKTFKSAKKTVLHTALKAISS-amide]", "values": [
      {"measurement": "HC50 at 18 h", "setting": "[1]; [6]", "result": 141, "unit": "µM"},
      {"measurement": "HC50 at 18 h", "setting": "[1]; [7]", "result": 422, "unit": "µg/mL"},
      {"measurement": "Hemolytic activity HC50", "setting": "human erythrocytes [2]; 50% hemolysis after 18 hours at 37° C.", "result": 141, "unit": "µM"},
      {"measurement": "Hemolytic activity HC50", "setting": "human erythrocytes [2]; [6]", "result": 140.9, "unit": "µM"},
      {"measurement": "Hemolytic activity HC50", "setting": "human erythrocytes [2]; [7]", "result": 421.5, "unit": "µg/mL"},
      {"measurement": "Hemolytic activity HC50", "setting": "human erythrocytes [2]; human red blood cells, 18 h", "result": 140.9, "unit": "µM"},
      {"measurement": "MIC", "setting": "Acinetobacter baumannii; A. baumannii strain 1 ATCC 17978, Mueller Hinton medium, 24 hours at 37° C.", "result": 0.8, "unit": "µM"},
      {"measurement": "MIC", "setting": "Acinetobacter baumannii; A. baumannii strain 2 ATCC 19606, Mueller Hinton medium, 24 hours at 37° C.", "result": 1.5, "unit": "µM"},
      {"measurement": "MIC", "setting": "Acinetobacter baumannii; A. baumannii strain 3, 649 Blood, Mueller Hinton medium, 24 hours at 37° C.", "result": 0.8, "unit": "µM"},
      {"measurement": "MIC", "setting": "Acinetobacter baumannii; A. baumannii strain 4, 689 Groin, Mueller Hinton medium, 24 hours at 37° C.", "result": 0.8, "unit": "µM"},
      {"measurement": "MIC", "setting": "Acinetobacter baumannii; A. baumannii strain 5, 759 Gluteus, Mueller Hinton medium, 24 hours at 37° C.", "result": 1.5, "unit": "µM"},
      {"measurement": "MIC", "setting": "Acinetobacter baumannii; A. baumannii strain 6, 821 Urine, Mueller Hinton medium, 24 hours at 37° C.", "result": 1.5, "unit": "µM"},
      {"measurement": "MIC", "setting": "Acinetobacter baumannii; A. baumannii strain 7, 884 Axilla, Mueller Hinton medium, 24 hours at 37° C.", "result": 1.5, "unit": "µM"},
      {"measurement": "MIC", "setting": "Acinetobacter baumannii; A. baumannii strain 8, 899 Perineum, Mueller Hinton medium, 24 hours at 37° C.", "result": 1.5, "unit": "µM"},
      {"measurement": "MIC", "setting": "Acinetobacter baumannii; A. baumannii strain 9, 964 Throat, Mueller Hinton medium, 24 hours at 37° C.", "result": 1.5, "unit": "µM"},
      {"measurement": "MIC", "setting": "Acinetobacter baumannii; A. baumannii strain 10, 985 Pleural fluid, Mueller Hinton medium, 24 hours at 37° C.", "result": 0.8, "unit": "µM"},
      {"measurement": "MIC", "setting": "Acinetobacter baumannii; A. baumannii strain 11, 1012 Sputum, Mueller Hinton medium, 24 hours at 37° C.", "result": 0.8, "unit": "µM"},
      {"measurement": "Antimicrobial Activity MIC against A. baumannii", "setting": "Acinetobacter baumannii; geometric mean (GM-MIC), 11 clinical isolates", "result": 1.1, "unit": "µM"},
      {"measurement": "MIC GM (geometric mean)", "setting": "Acinetobacter baumannii; geometric mean of the MIC values from 11 different isolates of Acinetobacter baumannii, Mueller Hinton medium", "result": 1.1, "unit": "µM"},
      {"measurement": "Acinetobacter baumannii MICGM", "setting": "Acinetobacter baumannii; geometric mean, 11 different isolates, 24 hours at 37° C.", "result": 1.1, "unit": "µM"},
      {"measurement": "Hydrophobicity (retention time in RP-HPLC)", "setting": "[3]", "result": "76.8 min and 76.75 min"},
      {"measurement": "PA (peptide self-association parameter)", "setting": "[4]", "result": 2.1},
      {"measurement": "MIC PAO 1", "setting": "Pseudomonas aeruginosa; Brain Heart Infusion medium", "result": 31.3, "unit": "µg/mL"},
      {"measurement": "MIC GM (geometric mean of the MIC values)", "setting": "Pseudomonas aeruginosa; Brain Heart Infusion medium", "result": 31.2, "unit": "µg/mL"},
      {"measurement": "MIC CP 204", "setting": "Pseudomonas aeruginosa; Brain Heart Infusion medium", "result": 62.5, "unit": "µg/mL"},
      {"measurement": "MIC M 2", "setting": "Pseudomonas aeruginosa; Brain Heart Infusion medium", "result": 62.5, "unit": "µg/mL"},
      {"measurement": "MIC PA 14", "setting": "Pseudomonas aeruginosa; Brain Heart Infusion medium", "result": 15.6, "unit": "µg/mL"},
      {"measurement": "MIC PAK", "setting": "Pseudomonas aeruginosa; Brain Heart Infusion medium", "result": 31.3, "unit": "µg/mL"},
      {"measurement": "MIC WR 5", "setting": "Pseudomonas aeruginosa; Brain Heart Infusion medium", "result": 15.6, "unit": "µg/mL"},
      {"measurement": "MIC PAO 1", "setting": "Pseudomonas aeruginosa; Mueller Hinton medium", "result": 7.8, "unit": "µg/mL"},
      {"measurement": "MIC GM (geometric mean of the MIC values)", "setting": "Pseudomonas aeruginosa; Mueller Hinton medium", "result": 12.4, "unit": "µg/mL"},
      {"measurement": "MIC CP 204", "setting": "Pseudomonas aeruginosa; Mueller Hinton medium", "result": 15.6, "unit": "µg/mL"},
      {"measurement": "MIC M 2", "setting": "Pseudomonas aeruginosa; Mueller Hinton medium", "result": 7.8, "unit": "µg/mL"},
      {"measurement": "MIC PA 14", "setting": "Pseudomonas aeruginosa; Mueller Hinton medium", "result": 15.6, "unit": "µg/mL"},
      {"measurement": "MIC PAK", "setting": "Pseudomonas aeruginosa; Mueller Hinton medium", "result": 15.6, "unit": "µg/mL"},
      {"measurement": "MIC WR 5", "setting": "Pseudomonas aeruginosa; Mueller Hinton medium", "result": 15.6, "unit": "µg/mL"},
      {"measurement": "Pseudomonas aeruginosa MICGM", "setting": "Pseudomonas aeruginosa; geometric mean, 6 different isolates, 24 hours at 37° C.", "result": 4.1, "unit": "µM"},
      {"measurement": "Hemolytic activity, minimal hemolytic concentration (MHC)", "setting": "human erythrocytes [5]", "result": "non-hemolytic"}
    ]}
  ]
}
